The test system of assay [1] is Sclerotinia homoeocarpa. The assay is described as follows: Control of dollar spot fungus: radial growth of fungal plugs on PDA after treatment in PBS, dark vs light. It is filed as cell-based. The settings on record: 31 μM + 0.21% BrijO10:ArlasolveDMI (1:4); for Mean Radial Growth: growth between 24 and 48 hours at 21° C; for % Inhibition: relative to non-amended control. The method, then:
In this example, control of dollar spot fungus (Sclerotinia homoeocarpa) with PP IX and modified PP IX was assessed. Treatments were prepared in Phosphate Buffered Saline (PBS) in 24 well plates (in duplicates for light vs. dark incubation) at desired concentrations. Then, a 5 mm diameter plug of a Sclerotinia homoeocarpa isolate (3 isolates total tested) was inoculated into the PBS and incubated at 21° C. in the dark for 2 hours. After 2 hours, one of the 24 well plates (with isolates in triplicate) was left in the dark and one 24 well plate was placed under illumination for 1 hour (all at […]). Following illumination, fungal plugs were removed from PBS, blotted dry on sterile filter paper and transferred to non-amended Potato Dextrose Agar (PDA). Radial growth of the fungus was monitored daily until the growth of S. homoeocarpa reaches the edge of the Petri-dish. Illumination was provided by LED lights emitting about 1000 μmol/m2/s photosynthetically active radiation (PAR).

For assay [2], the system named is Pseudomonas syringae pv. tabaci. The assay is described as follows: Photodynamic control of Pseudomonas syringae pv. tabaci in PBS, colony counts after illumination. It is filed as cell-based. The settings on record: 30 min dark then 1 hour illumination (about 1000 μmol/m2/s PAR), PBS control 8.7. The method, then:
In this example, control of the gram-negative bacterial plant pathogen Pseudomonas syringae pv. tabaci with PP IX and modified PP IX was assessed, with and without chelating agents. Treatments were prepared in Phosphate Buffered Saline (PBS) in 96 well plates at desired concentrations. A bacterial suspension was inoculated into the PBS and incubated at 28° C. in the dark for 30 minutes. After 30 minutes, the 96 well plate was placed under illumination for 1 hour (at 21° C.). Following illumination, bacterial suspensions were serially diluted and 10 μL of each dilution is spread uniformly on Tryptic Soy Agar (TSA) plates and placed in the dark in an incubator at 28° C. for 48 hours. After 48 hours, bacterial colonies were counted, and the results were log transformed (log colony forming units (CFU)/mL). The relative inactivation was determined by taking the difference between log CFU (PBS control) and log CFU (treatments). Sample Illumination was provided by LED lights (Heliospectra RX30) emitting about 1000 μmol/m^2/s photosynthetically active radiation (PAR).

Usually % Inhibition stands for the drop in the measured response relative to a control, in per cent. Turning to “Protoporphyrin IX disodium salt [PP IX disodium salt]”, the “Mean Radial Growth” value is recorded as 10.5 in assay [1] (Dark (no light exposure), PBS control 10.1) and 0.0 in assay [1] (Exposed to light for 1 hour (1000 PAR), PBS control 10.2). Further, the “% Inhibition” value was −3.8% in assay [1] (Dark (no light exposure)) and 100.0% in assay [1] (Exposed to light for 1 hour (1000 PAR)). Besides, the “log CFU/ml” value is listed as 3.8 log CFU/ml in assay [2] (10 μM + 5 mM NaEDTA in PBS) and 7.4 log CFU/ml in assay [2] (10 μM in PBS, no chelating agent).

Values taken from patent US12207655B2, “Protoporphyrin IX derivatives and use thereof to improve the health of plants” (priority 2019, dated 2025).
